This is an account of results in patent US20240368164A1, “PURINE NUCLEOSIDES, THEIR INTERMEDIATES, AND METHODS OF PREPARATION THEREOF” (Astrocyle Pharmaceuticals, Inc., priority 2021, published 2024).

Series [1] in a line: Plasma protein binding (free fraction). It counts as in vitro ADME, mouse. From the text:
(§1) Example 3 of U.S. Pat. No. 9,789,131, which is incorporated herein by reference, describes assays for determining the plasma and brain free fraction of certain compounds such as I-1. Compounds described herein may be evaluated using such assays or similar variants thereof.

Series [2] in a line: Nonspecific brain tissue binding (free fraction). It is filed as in vitro ADME, mouse. Particulars: brain tissue.
Source text: as §1

For series [3], the system named is photothrombosis-induced stroke in mice. Nature of the series: Mouse photothrombotic stroke model. It counts as in vivo. Particulars: mouse, stroke. The procedure: Photothrombosis-induced Stroke: Photothrombosis is performed as described in Zheng et al 2010 (PloS One 5 (12): e14401). In brief, Rose Bengal is a fluorescent dye that when injected into the vasculature and excited, generates singlet oxygen that damages the endothelial wall and induces a local thrombosis (clot). Using this technique, mice are given a 0.1 mL tail-vein injection of sterilized Rose Bengal (RB, Sigma, U.S.A.) in artificial cerebral spinal fluid (aCSF). The RB concentration is 20 mg/mL. A cortical region is centered in the imaging field and illuminated with a green laser (543 nm, 5 mW) using a 0.8-NA 40× water-immersion objective (Nikon, Tokyo). The clot formation is monitored in real time until the targeted vessel or downstream capillaries are firmly occluded. Stable clots are subsequently identified by a non-fluorescent vessel segmentation ending with highly fluorescent regions. […] Treatments, at doses such as 0.5 μmol/kg are introduced via intraperitoneal injections (i.p.). For experiments with A3 receptor antagonist MRS1523, mice are administered intraperitoneal injections (2 mg/kg) at the 0 and 2 hour timepoints to ensure receptor antagonism throughout the course of the study.
Animals and Photothrombosis-induced Stroke: Stroke is performed as described in Zheng et al 2010 (PloS One 5 (12): e14401). Female C57Bl/6 mice (4-6 months) are used in this study. From the methods of this manuscript: Mice are anesthetized at 3% isoflurane with 100% oxygen and subsequently maintained at 1% isoflurane through a nosecone. Depth of anesthesia is monitored and regulated according to vital signs, pinch withdrawal and eye blinks. Body temperature is maintained at 37° C. by a feedback-controlled heating pad (Gaymar T/Pump). Vital signs including oxygen saturation, respiratory rate, and heart rate are continuously monitored by using the MouseOx system (STARR Life Sciences). […]
Post photothrombotic infarction evaluation. The size of cerebral infarcts is evaluated using 2,3,5-Triphenyltetrazolium chloride (TTC) staining as described in Zheng et al 2010 (PloS One 5 (12): e14401). […]

The test system of series [4] is traumatic brain injury (TBI) in mice. Nature of the series: Mouse traumatic brain injury (TBI) model. It counts as in vivo. As to the method:
Animals and traumatic brain injury (TBI): TBI is performed with a controlled closed skull injury model as described in Talley-Watts et al. 2012 (J. Neurotrauma 30, 55-66). Following the method described therein, a pneumatic impact device is used to generate a moderate TBI leaving the skull and dura matter intact. To achieve this, C57BL/6 mice are anesthetized with isoflurane (3% induction, 1% maintenance) in 100% oxygen. A body temperature of 37° C. is maintained using a temperature-controlled heated surgical table. A small midline incision is made on the scalp using aseptic surgical techniques. A 5 mm stainless steel disc is positioned on the skull and fixed using superglue on the right parietal bone between bregma and lamda over the somatosensory cortex. The mouse is then positioned on a stage directly under the pneumatic impact tip. […] Mice are placed in a Thermo-Intensive Care Unit (Braintree Scientific model FV-1; 37° C.; 27% O2) and monitored until fully awake and moving freely. […]
Western Blot Analysis for GFAP: At selected survival times, mice are anesthetized under isoflurane and sacrificed. […] The homogenate is transferred to a 2 mL tube and centrifuged at 1000 g for 10 minutes at 4° C. and the supernatant is collected and analyzed. Protein concentration is determined by the BCA assay using a 1:50 dilution. […]

For another series, the target named is T1, Human A3R (Homo sapiens, UniProt P0DMS8).
T1 construct: expressed in transfected cells
T1 sequence (P0DMS8 1-318): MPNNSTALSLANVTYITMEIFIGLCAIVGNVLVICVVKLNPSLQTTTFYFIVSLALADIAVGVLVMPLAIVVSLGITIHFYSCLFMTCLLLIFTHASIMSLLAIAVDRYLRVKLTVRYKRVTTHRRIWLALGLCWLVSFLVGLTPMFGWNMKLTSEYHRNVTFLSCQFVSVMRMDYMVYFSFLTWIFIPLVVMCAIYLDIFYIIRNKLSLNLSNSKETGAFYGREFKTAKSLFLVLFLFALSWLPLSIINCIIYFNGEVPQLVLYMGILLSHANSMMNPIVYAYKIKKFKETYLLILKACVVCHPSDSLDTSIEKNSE
Nature of the series: Radioligand binding at human A3 adenosine receptor ([125I]I-AB-MECA, CHO cell membranes). The conditions noted are these: n = 1; read-out: Affinity (nM) at Human A3R. As to the method: [3H]R—N^6-Phenylisopropyladenosine ([3H]R-PIA, 63 Ci/mmol), [^3H](2-[p-(2-carboxyethyl)phenyl-ethylamino]-5′-N-ethylcarboxamido-adenosine) ([^3H]CGS21680, 40.5 Ci/mmol) and [^125I]N^6-(4-amino-3-iodobenzyl)adenosine-5′-N-methyluronamide ([^125I]I-AB-MECA, 2200 Ci/mmol) were purchased from Perkin-Elmer Life and Analytical Science (Boston, MA). Test compounds were prepared as 5 mM stock solutions in DMSO and stored frozen.
Cell Culture and Membrane Preparation—CHO cells stably expressing the recombinant hA1 and hA3ARs and HEK293 cells stably expressing the hA2AAR were cultured in Dulbecco's modified Eagle medium (DMEM) and F12 (1:1) supplemented with 10% fetal bovine serum, 100 units/mL penicillin, 100 μg/mL streptomycin, and 2 μmol/mL glutamine. In addition, 800 μg/mL geneticin was added to the A2A media, while 500 μg/mL hygromycin was added to the A1 and A3 media. After harvesting, cells were homogenized and suspended in PBS. Cells were then centrifuged at 240 g for 5 min, and the pellet was resuspended in 50 mM Tris-HCl buffer (pH 7.5) containing 10 mM MgCl2. The suspension was homogenized and was then ultra-centrifuged at 14,330 g for 30 min at 4° C. The resultant pellets were resuspended in Tris buffer, incubated with adenosine deaminase (3 units/mL) for 30 min at 37° C. The suspension was homogenized with an electric homogenizer for 10 sec, pipetted into 1 mL vials and then stored at −80° C. until the binding experiments. The protein concentration was measured using the BCA Protein Assay Kit from Pierce Biotechnology, Inc. (Rockford, IL).
Binding assays: Into each tube in the binding assay was added 50 μL of increasing concentrations of the test ligand in Tris-HCl buffer (50 mM, pH 7.5) containing 10 mM MgCl2, 50 μL of the appropriate agonist radioligand, and finally 100 μL of membrane suspension. For the A1AR (22 μg of protein/tube) the radioligand used was [^3H]R-PIA (final concentration of 3.5 nM). For the A2AAR (20 μg/tube) the radioligand used was [^3H]CGS21680 (10 nM). For the A3AR ([…]) the radioligand used was [^125I]I-AB-MECA (0.34 nM). Nonspecific binding was determined using a final concentration of 10 μM NECA diluted with the buffer. The mixtures were incubated at 25° C. for 60 min in a shaking water bath. Binding reactions were terminated by filtration through Brandel GF/B filters under a reduced pressure using a M-24 cell harvester (Brandel, Gaithersburg, MD). Filters were washed three times with 3 mL of 50 mM ice-cold Tris-HCl buffer (pH 7.5). Filters for A1 and A2AAR binding were placed in scintillation vials containing 5 mL of Hydrofluor scintillation buffer and counted using a Perkin Elmer Liquid Scintillation Analyzer (Tri-Carb 2810TR). Filters for A3AR binding were counted using a Packard Cobra II T-counter. The Ki values were determined using GraphPad Prism for all assays.
A3R binding of selected compounds. Using methods described herein, the affinity of selected compounds at the A3 receptor was measured.

Another series deals with P2Y1R (Homo sapiens, UniProt P47900). Particulars: reference 6; cited from earlier work.
Sequence of P2Y1R (P47900 whole entry): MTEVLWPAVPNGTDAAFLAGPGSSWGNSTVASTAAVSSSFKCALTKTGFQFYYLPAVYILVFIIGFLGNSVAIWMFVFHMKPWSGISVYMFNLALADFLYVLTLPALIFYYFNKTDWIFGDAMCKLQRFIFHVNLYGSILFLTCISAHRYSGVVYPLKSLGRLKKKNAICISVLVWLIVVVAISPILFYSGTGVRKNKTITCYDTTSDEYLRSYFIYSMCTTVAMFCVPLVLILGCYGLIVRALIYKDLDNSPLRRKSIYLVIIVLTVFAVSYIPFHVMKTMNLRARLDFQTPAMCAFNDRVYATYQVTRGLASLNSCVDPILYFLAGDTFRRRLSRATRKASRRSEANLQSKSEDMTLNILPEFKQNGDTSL
In a further series the target is T2, A3AR (Homo sapiens, UniProt P0DMS8).
T2 sequence (P0DMS8 1-318): T1 sequence (P0DMS8 1-318)
The conditions noted are these: reference 5; cited from earlier work.

Regarding `CNC(=O)[C@H]1O[C@@H](n2cnc3c(NCc4cccc(I)c4)nc(Cl)nc32)[C@H](O)[C@@H]1O` [Cl-IB-MECA, reference compound], the “free (unbound) fraction in plasma” value in series [1] is reported as 0.002. For the same compound, the “free (unbound) fraction in brain” value in series [2] is 0.002. The “efficacy in mouse photothrombotic stroke model” value in series [3] was “inactive”. In series [4], the “efficacy in mouse TBI model” value is reported as “weakly active”.

Consider `CCSc1nc(N)c2ncn([C@H]3[C@H](O)[C@H](O)[C@]4(CO)C[C@H]34)c2n1` [Compound I-2, (1R,2R,3S,4R,5S)-4-(6-Amino-2-(ethylthio)-9H-purin-9-yl)-1-(hydroxymethyl)bicyclo[3.1.0]hexane-2,3-diol], for which the Ki at Human A3R was determined as 909 nM.

In the case of `CCCCCCSc1nc(N)c2ncn([C@H]3[C@H](O)[C@H](O)[C@]4(CO)C[C@H]34)c2n1` [Compound I-3, (1R,2R,3S,4R,5S)-4-(6-Amino-2-(hexylthio)-9H-purin-9-yl)-1-(hydroxymethyl)bicyclo[3.1.0]hexane-2,3-diol], on Human A3R, the Ki came out at 504 nM.

`Nc1nc(SC2CCCCC2)nc2c1ncn2[C@H]1[C@H](O)[C@H](O)[C@]2(CO)C[C@H]12` [Compound I-4, (1R,2R,3S,4R,5S)-4-(6-Amino-2-(cyclohexylthio)-9H-purin-9-yl)-1-(hydroxymethyl)bicyclo[3.1.0]hexane-2,3-diol]: the Ki on Human A3R is 1170 nM.

Regarding `Nc1nc(SCc2ccccc2)nc2c1ncn2[C@H]1[C@H](O)[C@H](O)[C@]2(CO)C[C@H]12` [Compound I-5, (1R,2R,3S,4R,5S)-4-(6-Amino-2-(benzylthio)-9H-purin-9-yl)-1-(hydroxymethyl)bicyclo[3.1.0]hexane-2,3-diol], the Ki on Human A3R was found to be 55 nM.

For the compound `Nc1nc(SCCc2ccccc2)nc2c1ncn2[C@H]1[C@H](O)[C@H](O)[C@]2(CO)C[C@H]12` [Compound I-6, (1R,2R,3S,4R,5S)-4-(6-Amino-2-(phenethylthio)-9H-purin-9-yl)-1-(hydroxymethyl)bicyclo[3.1.0]hexane-2,3-diol], on Human A3R, the Ki stood at 379 nM.

Consider `COc1nc(N)c2ncn([C@H]3[C@H](O)[C@H](O)[C@]4(CO)C[C@H]34)c2n1` [Compound I-7, (1R,2R,3S,4R,5S)-4-(6-Amino-2-methoxy-9H-purin-9-yl)-1-(hydroxymethyl)bicyclo[3.1.0]hexane-2,3-diol], for which the Ki at Human A3R is 1050 nM.

Turning to `CSc1nc(N)c2ncn([C@H]3C(O)[C@@H](O)[C@]4(COP(=O)(O)OP(=O)(O)O)C[C@H]34)c2n1` (stereo partly drawn) [MRS2365], the Ki on P2Y1R is 0.4 nM.

Consider `CNC(=O)[C@@]12C[C@@H]1[C@@H](n1cnc3c(NCc4cccc(Cl)c4)nc(SC)nc31)C(O)[C@H]2O` (stereo partly drawn) [MRS3611], for which the Ki on A3AR is 1.5 nM.
